Test results published in paper PMC10268634 (ACS Omega, 2023).

How the values were obtained:
[1] = DPPH radical scavenging; details: for IC50: read-out: DPPH (IC50 value in μM)
[2] = target: T1, α-amylase (Homo sapiens, UniProt P04746); experiment: biochemical
T1 sequence (P04746 16-511): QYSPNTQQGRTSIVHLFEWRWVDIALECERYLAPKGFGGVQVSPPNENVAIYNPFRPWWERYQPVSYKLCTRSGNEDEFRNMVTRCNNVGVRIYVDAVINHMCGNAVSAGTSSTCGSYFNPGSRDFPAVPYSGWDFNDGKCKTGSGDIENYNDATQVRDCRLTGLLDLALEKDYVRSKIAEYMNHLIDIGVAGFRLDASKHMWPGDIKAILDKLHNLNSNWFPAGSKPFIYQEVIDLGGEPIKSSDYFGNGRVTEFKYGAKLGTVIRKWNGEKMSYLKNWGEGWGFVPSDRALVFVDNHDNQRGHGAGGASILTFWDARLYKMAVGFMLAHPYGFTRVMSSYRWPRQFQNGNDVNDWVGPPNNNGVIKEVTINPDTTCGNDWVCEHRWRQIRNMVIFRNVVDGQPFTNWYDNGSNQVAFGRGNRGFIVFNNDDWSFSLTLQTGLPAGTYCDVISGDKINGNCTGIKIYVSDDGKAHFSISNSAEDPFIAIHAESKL

Structure (SMILES) | DPPH (IC50 value in μM) [1] | IC50 [1] [µM] | IC50 [2] [µM]
COc1ccc(C2CC(c3ccc(O)cc3)=NN2C(C)=O)cc1 (stereo not drawn) [Compound 11, 1-(3-(4-Hydroxyphenyl)-5-(4-methoxyphenyl)-4,5-dihydro-1H-pyrazol-1-yl)ethanone] | potential antioxidant activity | 53.5 | 0.551
CC(=O)N1N=C(c2ccc(Cl)cc2)CC1c1cccc([N+](=O)[O-])c1 (stereo not drawn) [Compound 22, 1-(3-(4-Chlorophenyl)-5-(3-nitrophenyl)-4,5-dihydro-1H-pyrazol-1-yl)ethanone] |  | 220 | 61.5
CC(=O)N1N=C(c2ccccc2)CC1c1ccccn1 (stereo not drawn) [Compound 4, 1-(3-Phenyl-5-(pyridin-2-yl)-4,5-dihydro-1H-pyrazol-1-yl)ethanone] |  | 914 | 663
COc1ccc(C2=NN(C(C)=O)C(c3ccco3)C2)cc1 (stereo not drawn) [Compound 6, 1-(5-(Furan-2-yl)-3-(4-methoxyphenyl)-4,5-dihydro-1H-pyrazol-1-yl)ethanone] |  | 554 | 811
CC(=O)N1N=C(c2ccc(Cl)cc2)CC1c1ccccc1O (stereo not drawn) [Compound 20, 1-(3-(4-Chlorophenyl)-5-(2-hydroxyphenyl)-4,5-dihydro-1H-pyrazol-1-yl)ethanone] | potential antioxidant activity | 99.6 | 590
CC(=O)N1N=C(c2ccc(Cl)cc2)CC1c1cccs1 (stereo not drawn) [Compound 15, 1-(3-(4-Chlorophenyl)-5-(thiophen-2-yl)-4,5-dihydro-1H-pyrazol-1-yl)ethanone] |  | 383 | 425
CC(=O)N1N=C(c2ccc(Cl)cc2)CC1c1ccccc1 (stereo not drawn) [Compound 19, 1-(3-(4-Chlorophenyl)-5-phenyl-4,5-dihydro-1H-pyrazol-1-yl)ethanone] |  | 172 | 
CC(=O)N1N=C(c2ccc(Cl)cc2)CC1c1cccc(O)c1 (stereo not drawn) [Compound 17, 1-(3-(4-Chlorophenyl)-5-(3-hydroxyphenyl)-4,5-dihydropyrazol-1-yl)ethanone] |  | 160 | 315
CC(=O)N1N=C(c2ccccc2)CC1c1ccccc1O (stereo not drawn) [Compound 1, 1-(5-(2-Hydroxyphenyl)-3-phenyl-4,5-dihydro-1H-pyrazol-1-yl)ethanone] | potential antioxidant activity | 84.2 | 188
CC(=O)N1N=C(c2ccc(O)cc2)CC1c1ccco1 (stereo not drawn) [Compound 8, 1-(5-(Furan-2-yl)-3-(4-hydroxyphenyl)-4,5-dihydro-1H-pyrazol-1-yl)ethanone] | potential antioxidant activity | 106 | 1.07
CC(=O)N1N=C(c2ccc(Cl)cc2)CC1c1ccccn1 (stereo not drawn) [Compound 18, 1-(3-(4-Chlorophenyl)-5-(pyridin-2-yl)-4,5-dihydro-1H-pyrazol-1-yl)ethanone] |  | 199 | 281
COc1ccc(C2CC(c3ccc(Cl)cc3)=NN2C(C)=O)cc1 (stereo not drawn) [Compound 13, 1-(3-(4-Chlorophenyl)-5-(4-methoxyphenyl)-4,5-dihydro-1H-pyrazol-1-yl)ethanone] | potential antioxidant activity | 131 | 
CC(=O)N1N=C(c2ccc(O)cc2)CC1c1ccccn1 (stereo not drawn) [Compound 7, 1-(3-(4-Hydroxyphenyl)-5-(pyridin-2-yl)-4,5-dihydro-1H-pyrazol-1-yl)ethanone] | potential antioxidant activity | 69 | 196
CC(=O)N1N=C(c2ccc(Cl)cc2)CC1c1ccco1 (stereo not drawn) [Compound 21, 1-(3-(4-Chlorophenyl)-5-(furan-2-yl)-4,5-dihydro-1H-pyrazol-1-yl)ethanone] |  | 580 | 262
CC(=O)N1N=C(c2ccc(O)cc2)CC1c1ccc(N(C)C)cc1 (stereo not drawn) [Compound 10, 1-(5-(4-(Dimethylamino)phenyl)-3-(4-hydroxyphenyl)-4,5-dihydropyrazol-1-yl)ethanone] | potential antioxidant activity | 41.1 | 388
COc1ccc(C2CC(c3ccc(Cl)cc3)=NN2C(C)=O)cc1O (stereo not drawn) [Compound 16, 1-(3-(4-Chlorophenyl)-5-(3-hydroxy-4-methoxyphenyl)-4,5-dihydropyrazol-1-yl)ethanone] |  | 56.3 | 62.5
CC(=O)N1N=C(c2ccccc2)CC1c1ccco1 (stereo not drawn) [Compound 2, 1-(5-(Furan-2-yl)-3-phenyl-4,5-dihydro-1H-pyrazol-1-yl)ethanone] | potential antioxidant activity | 85.1 | 301
CC(=O)N1N=C(c2ccc(Cl)cc2)CC1c1ccc(C)cc1 (stereo not drawn) [Compound 14, 1-(3-(4-Chlorophenyl)-5-(p-tolyl)-4,5-dihydro-1H-pyrazol-1-yl)ethanone] |  | 179 | 
CC(=O)N1N=C(c2ccccc2)CC1c1ccc(C)cc1 (stereo not drawn) [Compound 5, 1-(3-Phenyl-5-(p-tolyl)-4,5-dihydro-1H-pyrazol-1-yl)ethanone] | potential antioxidant activity | 30 | 35.5
CC(=O)N1N=C(c2ccc(O)cc2)CC1c1cccc([N+](=O)[O-])c1 (stereo not drawn) [Compound 9, 1-(3-(4-Hydroxyphenyl)-5-(3-nitrophenyl)-4,5-dihydro-1H-pyrazol-1-yl)ethanone] |  | 161 | 632
CC(=O)N1N=C(c2ccccc2)CC1c1cccc([N+](=O)[O-])c1 (stereo not drawn) [Compound 3, 1-(5-(3-Nitrophenyl)-3-phenyl-4,5-dihydro-1H-pyrazol-1-yl)ethanone] |  | 205 | 604
CC(=O)N1N=C(c2ccc(O)cc2)CC1c1ccc(C)cc1 (stereo not drawn) [Compound 12, 1-(3-(4-Hydroxyphenyl)-5-(p-tolyl)-4,5-dihydro-1H-pyrazol-1-yl)ethanone] | potential antioxidant activity | 151 | 400
